Series [1] is described as follows: Antioxidant activity of the compound assessed as DPPH radical scavenging activity incubated in dark condition for 15 mins by colorimetric method. Particulars: 0.25 h. The class given is physicochemical.
A short description of series [2]: Inhibition of baker's yeast alpha-glucosidase. More on the design: species or system Saccharomyces cerevisiae.
The nature of series [3]: Antioxidant activity of the compound assessed as DPPH radical scavenging activity at 5 mg/ml incubated in dark condition for 15 mins by colorimetric method relative to control. The class given is physicochemical. The settings on record: 0.25 h. (Loss of DPPH colour is used to gauge radical scavenging.)
The subject of another series is Saccharomyces cerevisiae. Briefly: Inhibition of baker's yeast alpha-glucosidase at 10 mg/ml relative to control.

This is an account of results in ChEMBL document CHEMBL3425462, “N-Arylmethylaminoquercitols, a new series of effective antidiabetic agents having α-glucosidase inhibition and antioxidant activity” (Bioorg Med Chem Lett, 2015).

With `CC(C)(C)c1cc(C=O)cc(C(C)(C)C)c1O`, the SC50 in series [1] amounted to 1.4 mM.

In general, IC50 refers to the midpoint of a concentration-inhibition curve. A higher IC50 goes with weaker potency. `OC(CN[C@H]1C[C@@H](O)[C@H](O)[C@@H](O)[C@H]1O)c1ccccc1` (stereo partly drawn) yielded an IC50 in series [2] of 3010 µM. The Activity in series [3] is reported as less than 20%.

Usually inhibition stands for the drop in the measured response relative to a control, in per cent. A low value points to a weak effect. On to `O[C@@H]1[C@@H](O)[C@H](O)C[C@H](NCc2cccs2)[C@@H]1O`, for which, in the series on Saccharomyces cerevisiae, the inhibition is less than 30%. Moreover, in series [3], the Activity is on record as less than 20%.

As for `N[C@H]1C[C@@H](O)[C@H](O)[C@@H](O)[C@H]1O`, in series [2], the IC50 was 2890 µM. The Activity in series [3] is reported as less than 20%.

In the case of `O[C@@H]1[C@@H](O)[C@H](O)C[C@H](NCc2ccc(Br)cc2)[C@@H]1O`, the half-inhibitory concentration (IC50) in series [2] was 3140 µM. Moreover, the Activity in series [3] is given as less than 20%.

As to `O=Cc1ccc(O)cc1` [4-HYDROXYBENZALDEHYDE], the Activity in series [3] is less than 20%.

Consider `COc1cc(CN[C@H]2C[C@@H](O)[C@H](O)[C@@H](O)[C@H]2O)ccc1O`, for which the 50% inhibitory concentration (IC50) in series [2] amounted to 94.4 µM. Moreover, in series [1], the SC50 was found to be 2.1 mM.

As to `Oc1ccc(CN[C@H]2C[C@@H](O)[C@H](O)[C@@H](O)[C@H]2O)cc1`, in series [2], the midpoint of inhibition, the IC50, lay at 111 µM. Besides, the SC50 in series [1] amounted to 16.2 mM.

For the compound `COc1cc(C=O)ccc1O` [VANILLIN], the SC50 in series [1] is recorded as 4.9 mM.

In turn, `CC(C)(C)c1cc(CN[C@H]2C[C@@H](O)[C@H](O)[C@@H](O)[C@H]2O)cc(C(C)(C)C)c1O` had a concentration for half-maximal inhibition (IC50) in series [2] of 89.1 µM. Further, the SC50 in series [1] is listed as 0.4 mM.

For the compound `C[C@H]1O[C@H](O[C@H]2[C@H](O)[C@@H](O)[C@@H](O[C@H]3[C@H](O)[C@@H](O)C(O)O[C@@H]3CO)O[C@@H]2CO)[C@H](O)[C@@H](O)[C@@H]1N[C@H]1C=C(CO)[C@@H](O)[C@H](O)[C@H]1O` (stereo partly drawn) [ACARBOSE], it took 480 µM to reach half-maximal inhibition in series [2] (IC50). Besides, the Activity in series [3] is on record as less than 20%.

For `O[C@@H]1[C@@H](O)[C@H](O)C[C@H](NCCc2ccccc2)[C@@H]1O`, in series [2], inhibition was half-maximal at 1350 µM (IC50). In series [3], the Activity is less than 20%.

For the compound `O[C@@H]1[C@@H](O)[C@H](O)C[C@H](NCc2cccnc2)[C@@H]1O`, in the series with Saccharomyces cerevisiae, the inhibition was less than 30%. Further, the Activity in series [3] is less than 20%.
